Laboratory results as given in ChEMBL document CHEMBL5029152, “Discovery of Highly Potent and Selective IRAK1 Degraders to Probe Scaffolding Functions of IRAK1 in ABC DLBCL” (J Med Chem, 2021).
pIC50: −log10 of the molar value. Active and inactive are the calls of the source. No cut-off for these calls is given here.

Columns and labels:
[1] = biological target: T1, Interleukin-1 receptor-associated kinase 1 (Homo sapiens, UniProt P51617); experiment: (§1) Inhibition of truncated human N-terminal GST-fusion tagged IRAK1 (194 to 712 residues) expressed in baculovirus expression system using FAM-labelled peptide as substrate preincubated for 10 mins followed by substrate addition and further incubated for 1 hr in presence of ATP at Km concentration by caliper mobility shift assay
Target sequence in this assay (P51617 whole entry, the tested form may be a part): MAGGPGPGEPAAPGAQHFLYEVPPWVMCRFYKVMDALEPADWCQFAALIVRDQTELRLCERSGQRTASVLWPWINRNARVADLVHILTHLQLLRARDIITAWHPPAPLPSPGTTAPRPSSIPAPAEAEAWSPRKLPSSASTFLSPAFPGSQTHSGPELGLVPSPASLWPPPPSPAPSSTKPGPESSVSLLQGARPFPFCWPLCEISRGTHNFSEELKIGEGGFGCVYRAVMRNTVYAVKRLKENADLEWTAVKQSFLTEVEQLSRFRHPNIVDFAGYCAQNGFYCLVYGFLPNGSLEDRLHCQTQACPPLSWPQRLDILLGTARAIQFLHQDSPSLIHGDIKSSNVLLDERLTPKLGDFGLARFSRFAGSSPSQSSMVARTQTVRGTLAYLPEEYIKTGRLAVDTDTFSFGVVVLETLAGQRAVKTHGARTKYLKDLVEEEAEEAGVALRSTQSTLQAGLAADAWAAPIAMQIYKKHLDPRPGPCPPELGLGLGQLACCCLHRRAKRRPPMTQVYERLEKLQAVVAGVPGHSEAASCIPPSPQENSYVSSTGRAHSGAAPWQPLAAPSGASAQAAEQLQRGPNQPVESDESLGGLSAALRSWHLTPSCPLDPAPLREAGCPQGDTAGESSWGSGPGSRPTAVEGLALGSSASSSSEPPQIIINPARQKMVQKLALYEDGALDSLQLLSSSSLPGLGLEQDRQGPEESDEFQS

[2] = biological target: T2, Interleukin-1 receptor-associated kinase 4 (Homo sapiens, UniProt Q9NWZ3); experiment: as §1, with “full length” for “truncated”, “IRAK4” for “IRAK1 (194 to 712 residues)”
T2 sequence (Q9NWZ3 whole entry): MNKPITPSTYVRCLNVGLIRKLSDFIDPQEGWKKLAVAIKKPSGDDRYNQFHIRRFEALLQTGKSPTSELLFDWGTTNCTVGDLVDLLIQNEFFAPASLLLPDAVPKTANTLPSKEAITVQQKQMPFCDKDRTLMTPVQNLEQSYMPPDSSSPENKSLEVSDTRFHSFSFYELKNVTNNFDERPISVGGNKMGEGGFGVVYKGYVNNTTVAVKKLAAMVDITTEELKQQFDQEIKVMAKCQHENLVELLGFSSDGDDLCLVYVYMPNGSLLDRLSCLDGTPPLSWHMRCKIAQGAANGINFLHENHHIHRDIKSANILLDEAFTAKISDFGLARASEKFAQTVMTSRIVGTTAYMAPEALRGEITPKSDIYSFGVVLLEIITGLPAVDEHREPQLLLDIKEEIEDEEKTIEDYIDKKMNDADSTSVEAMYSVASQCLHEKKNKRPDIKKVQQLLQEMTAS

[3] = biological target: T3, von Hippel-Lindau disease tumor suppressor/Interleukin-1 receptor-associated kinase 1 (Homo sapiens, UniProt P51617+P40337); experiment: Protac activity at IRAK1/VHL E3 ligase in HEK293T cells assessed as induction of IRAK1 degradation measured after 24 hrs by Western blot analysis; type: cell-based
Target sequence in this assay (P51617 whole entry): as the sequence (P51617 whole entry, the tested form may be a part) above
Target sequence in this assay (P40337 whole entry): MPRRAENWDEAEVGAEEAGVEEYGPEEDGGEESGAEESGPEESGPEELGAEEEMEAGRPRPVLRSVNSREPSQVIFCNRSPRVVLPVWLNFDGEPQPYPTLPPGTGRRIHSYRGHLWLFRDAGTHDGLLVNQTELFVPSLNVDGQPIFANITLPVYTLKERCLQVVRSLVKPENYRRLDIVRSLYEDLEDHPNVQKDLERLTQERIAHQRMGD

[4] = biological target: T3, von Hippel-Lindau disease tumor suppressor/Interleukin-1 receptor-associated kinase 1; experiment: Protac activity at IRAK1/VHL E3 ligase in HEK293T cells assessed as induction of IRAK1 degradation at 1 uM measured after 24 hrsin presence of VH298 by Western blot analysis; type: cell-based; conditions: time 24.0 hrs
Target sequence in this assay (P40337 whole entry, looked up): as the sequence (P40337 whole entry) above
Target sequence in this assay (P51617 whole entry, looked up): as the sequence (P51617 whole entry, the tested form may be a part) above

[5] = biological target: T4, Cyclin-G-associated kinase (Homo sapiens) (UniProt O14976); experiment: Induction of GAK degradation in human Toledo cells assessed as decrease in protein abundance at 1 uM measured after 6 hrs by quantitative mass spectrometry; type: cell-based
T4 sequence (whole entry): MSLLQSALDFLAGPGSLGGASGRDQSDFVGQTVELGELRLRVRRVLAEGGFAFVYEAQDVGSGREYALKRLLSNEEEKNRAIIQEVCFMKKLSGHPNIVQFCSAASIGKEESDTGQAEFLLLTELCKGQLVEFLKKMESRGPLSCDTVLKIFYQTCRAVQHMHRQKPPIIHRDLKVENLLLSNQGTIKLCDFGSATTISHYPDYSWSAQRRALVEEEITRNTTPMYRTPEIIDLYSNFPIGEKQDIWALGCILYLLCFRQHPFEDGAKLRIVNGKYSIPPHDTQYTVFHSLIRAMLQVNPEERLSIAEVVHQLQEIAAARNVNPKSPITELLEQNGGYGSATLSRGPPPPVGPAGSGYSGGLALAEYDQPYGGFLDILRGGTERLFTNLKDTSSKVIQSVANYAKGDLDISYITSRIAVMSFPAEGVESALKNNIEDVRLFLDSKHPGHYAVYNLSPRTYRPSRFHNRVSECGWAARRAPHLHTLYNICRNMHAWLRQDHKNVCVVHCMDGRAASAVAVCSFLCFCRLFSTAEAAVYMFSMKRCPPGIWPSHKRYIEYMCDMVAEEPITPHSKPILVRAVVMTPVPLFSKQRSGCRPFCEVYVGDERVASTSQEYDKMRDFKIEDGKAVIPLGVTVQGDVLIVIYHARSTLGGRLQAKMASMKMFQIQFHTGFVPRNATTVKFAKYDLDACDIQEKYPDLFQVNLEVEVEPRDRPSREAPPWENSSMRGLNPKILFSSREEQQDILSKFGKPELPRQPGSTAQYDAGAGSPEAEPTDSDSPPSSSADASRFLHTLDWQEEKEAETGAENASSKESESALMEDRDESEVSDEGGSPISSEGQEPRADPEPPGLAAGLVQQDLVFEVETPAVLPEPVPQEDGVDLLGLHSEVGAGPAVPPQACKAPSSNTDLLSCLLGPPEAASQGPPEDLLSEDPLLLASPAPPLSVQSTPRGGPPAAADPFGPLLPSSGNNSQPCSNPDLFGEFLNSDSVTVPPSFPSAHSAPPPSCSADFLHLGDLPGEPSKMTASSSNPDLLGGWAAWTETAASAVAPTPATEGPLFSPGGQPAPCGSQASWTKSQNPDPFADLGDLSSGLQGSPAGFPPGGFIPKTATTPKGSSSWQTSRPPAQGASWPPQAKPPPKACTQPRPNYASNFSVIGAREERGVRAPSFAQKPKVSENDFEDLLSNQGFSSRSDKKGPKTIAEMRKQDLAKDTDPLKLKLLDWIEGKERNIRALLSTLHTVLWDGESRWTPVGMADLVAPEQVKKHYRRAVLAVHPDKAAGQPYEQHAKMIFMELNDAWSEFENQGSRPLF

[6] = biological target: NmrA-like family domain-containing protein 1 (Homo sapiens) (UniProt Q9HBL8); experiment: Induction of NMRAL1 degradation in human Toledo cells assessed as decrease in protein abundance at 1 uM measured after 6 hrs by quantitative mass spectrometry; type: cell-based
NmrA-like family domain-containing protein 1 (Homo sapiens), sequence (Q9HBL8 whole entry, the tested form may be a part): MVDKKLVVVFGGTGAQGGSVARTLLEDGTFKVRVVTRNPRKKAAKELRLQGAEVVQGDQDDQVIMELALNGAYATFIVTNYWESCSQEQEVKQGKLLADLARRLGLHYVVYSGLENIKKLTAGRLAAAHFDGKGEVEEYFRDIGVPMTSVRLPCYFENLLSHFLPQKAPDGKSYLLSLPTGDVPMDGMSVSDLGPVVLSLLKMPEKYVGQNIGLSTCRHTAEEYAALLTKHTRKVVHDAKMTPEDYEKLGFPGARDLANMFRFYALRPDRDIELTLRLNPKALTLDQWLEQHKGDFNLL

[7] = biological target: T4, Cyclin-G-associated kinase (Homo sapiens); experiment: Inhibition of wild-type human partial length GAK (G13 to Y338 residues) expressed in bacterial expression system at 1 uM by Kinomescan method relative to control
[8] = biological target: T4, Cyclin-G-associated kinase (Homo sapiens); experiment: Induction of GAK degradation in human Toledo cells at 1 uM measured after 6 hrs by quantitative mass spectrometry relative to control; type: cell-based
[9] = biological target: T1, Interleukin-1 receptor-associated kinase 1; experiment: Inhibition of IRAK1 in human HBL1 cells assessed as reduction in phosphorylated IKBA level at up to 1 uM measured after 24 hrs by Western blot analysis; type: cell-based; conditions: dose microM <=1, time 24.0 hrs
Target sequence in this assay (P51617 whole entry, looked up, the tested form may be a part): as the sequence (P51617 whole entry, the tested form may be a part) above

HBL1 = experiment: Induction of apoptosis in human HBL1 cells assessed as increase in PARP cleavage at up to 1 uM measured after 24 hrs by Western blot analysis; type: functional, cell-based; conditions: dose microM <=1, time 24.0 hrs

pIC50 [1]: 7.14 | pIC50 [2]: 6.35 | DC50 [3]: 3.3 nM | Activity [4]: inactive | Activity [5]: Active | Activity [6]: Active | inhibition [7]: 63% | Activity [8]: 50% | inhibition [9]: Active
SMILES: COc1cc(N2CCC(OCC(=O)N[C@H](C(=O)N3C[C@H](O)C[C@H]3C(=O)N[C@@H](C)c3ccc(-c4scnc4C)cc3)C(C)(C)C)CC2)ccc1NC(=O)c1cccc(-c2ccn[nH]2)n1
Activity (HBL1): Active
